Experimental data published in patent publication US20260365653A1, “IRREVERSIBLE MUTEGFR INHIBITORS” (Bayer Aktiengesellschaft, priority 2022, published 2026).

Columns and labels:
BA/F3 (insSVD) cells = experiment: Ba/F3-EGFR-insSVD cell survival assay (Cell Titer-Glo); type: cell-based; conditions: Mus musculus, BaF3, 48 h, Table 3a, cell survival, Cell Titer-Glo, with 10 ng/ml EGF, without IL-3
Procedure, shortened: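 CellTiter-Glo luminescence read after 48 h compound exposure at 37° C. Cells: IL-3-independent Ba/F3 lines transduced with EGFR-insSVD or EGFR-insSVD T790M, maintained on 10 ng/ml EGF and seeded at 4000 per well.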

[1] = target: T1, mutEGFR (D770_N771insSVD) (Homo sapiens, UniProt P00533, DUP768-770); experiment: Exon20-Mutant-EGFR (D770_N771insSVD) kinase assay (TR-FRET); type: biochemical; conditions: mutEGFR (D770_N771insSVD) kinase assay IC50, Table 2a; D770_N771insSVD; 2 mM ATP
T1 construct: GST-EGFR #3 (SVD between D770 and N771); made in house; host or cells: Sf9 insect cells (baculovirus)

[2] = target: T2, mutEGFR (D770_N771insNPG, T790) (Homo sapiens, UniProt P00533, INS770NPG/T790M); experiment: mutEGFR (D770_N771insNPG, T790) kinase assay; type: biochemical; conditions: Table 2a, D770_N771insNPG
T2 construct: exact insNPG construct not described; in-house EGFR proteins were N-terminal GST fusions from baculovirus/insect cells (borders R669-A1210 given only for WT, insSVD, insASV)
Text: The different EGFR proteins used in the biochemical kinase activity inhibition assays were generated inhouse by expression in insect cells using Baculo Virus system and subsequent purification as described in the following paragraphs.
The cDNAs encoding the various protein sequences from human EGFR human (P00533) were optimized for expression in eukaryotic cells and synthesized by the GeneArt Technology at Life Technologies.

T2 sequence (P00533 with tags, fused parts or gaps INS770NPG/T790M limits assumed): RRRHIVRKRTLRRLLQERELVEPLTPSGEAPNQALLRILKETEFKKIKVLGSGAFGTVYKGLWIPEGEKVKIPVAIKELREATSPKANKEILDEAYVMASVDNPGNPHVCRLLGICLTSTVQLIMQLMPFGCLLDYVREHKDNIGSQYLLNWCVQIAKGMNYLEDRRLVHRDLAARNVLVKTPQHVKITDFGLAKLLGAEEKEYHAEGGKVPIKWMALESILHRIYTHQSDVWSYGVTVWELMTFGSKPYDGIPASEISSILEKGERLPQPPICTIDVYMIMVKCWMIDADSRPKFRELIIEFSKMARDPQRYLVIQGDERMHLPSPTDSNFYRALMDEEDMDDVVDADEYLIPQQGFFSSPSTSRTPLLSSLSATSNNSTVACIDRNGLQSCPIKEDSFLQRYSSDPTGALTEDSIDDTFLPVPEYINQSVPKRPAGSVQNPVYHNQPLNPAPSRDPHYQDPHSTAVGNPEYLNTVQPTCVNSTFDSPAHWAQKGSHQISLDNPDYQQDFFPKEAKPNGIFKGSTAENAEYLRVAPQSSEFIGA
T1 sequence (P00533 with tags, fused parts or gaps DUP768-770): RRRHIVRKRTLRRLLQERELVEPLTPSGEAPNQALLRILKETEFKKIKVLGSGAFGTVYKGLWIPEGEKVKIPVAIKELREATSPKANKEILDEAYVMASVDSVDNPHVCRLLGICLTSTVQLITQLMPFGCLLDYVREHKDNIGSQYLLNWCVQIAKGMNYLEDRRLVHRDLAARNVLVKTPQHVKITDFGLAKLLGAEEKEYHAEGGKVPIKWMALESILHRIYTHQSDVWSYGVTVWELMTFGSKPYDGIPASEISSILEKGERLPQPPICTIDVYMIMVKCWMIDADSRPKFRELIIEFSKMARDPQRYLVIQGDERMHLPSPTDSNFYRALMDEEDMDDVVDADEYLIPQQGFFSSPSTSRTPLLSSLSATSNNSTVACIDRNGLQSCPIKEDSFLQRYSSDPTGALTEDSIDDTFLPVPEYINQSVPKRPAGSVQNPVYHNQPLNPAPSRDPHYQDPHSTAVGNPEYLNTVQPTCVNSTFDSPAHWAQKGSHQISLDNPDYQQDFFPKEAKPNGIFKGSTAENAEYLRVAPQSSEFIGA

Row | SMILES | IC50 [1] [nM] | IC50 [2] [nM] | IC50 (BA/F3 (insSVD) cells) [nM]
1 | C=CC(=O)N1CCn2nc(-c3cc4ccoc4cc3F)c(-c3ccncc3)c2C1 [Example 112, 1-[2-(6-fluoro-1-benzofuran-5-yl)-3-(pyridin-4-yl)-6,7-dihydropyrazolo[1,5-a]pyrazin-5(4H)-yl]prop-2-en-1-one] | 0.196 | 0.448 | 20.3
2 | C=CC(=O)N1CCn2nc(-c3ccc4cc[nH]c4c3F)c(-c3ccncc3)c2C1 [Example 114] | 0.144 | 0.218 | 13.7
3 | C=CC(=O)N1CCn2nc(-c3ccc(Cl)cc3Cl)c(-c3ccncc3)c2C1 [Example 115, 1-[2-(2,4-dichlorophenyl)-3-(pyridin-4-yl)-6,7-dihydropyrazolo[1,5-a]pyrazin-5(4H)-yl]prop-2-en-1-one] | 0.22 | 0.949 | 42.2
4 | C=CC(=O)N1CCn2nc(-c3ccc(Cl)cc3OC)c(-c3ccncc3)c2C1 [Example 116, 1-[2-(4-chloro-2-methoxyphenyl)-3-(pyridin-4-yl)-6,7-dihydropyrazolo[1,5-a]pyrazin-5(4H)-yl]prop-2-en-1-one] | 8.38 | 11.5 | 635
5 | C=CC(=O)N1CCn2nc(-c3ccc(Cl)cc3C)c(-c3ccncc3)c2C1 [Example 117, 1-[2-(4-chloro-2-methylphenyl)-3-(pyridin-4-yl)-6,7-dihydropyrazolo[1,5-a]pyrazin-5(4H)-yl]prop-2-en-1-one] | 0.384 | 1.86 | 54.5
6 | C=CC(=O)N1CCn2nc(-c3ccc(Cl)c(C#N)c3)c(-c3ccncc3)c2C1 [Example 118, 2-chloro-5-[5-(prop-2-enoyl)-3-(pyridin-4-yl)-4,5,6,7-tetrahydropyrazolo[1,5-a]pyrazin-2-yl]benzonitrile] | 8.55 | 4.9 | 183
7 | C=CC(=O)N1CCn2nc(-c3cccc(C#N)c3F)c(-c3ccncc3)c2C1 [Example 120, 2-fluoro-3-[5-(prop-2-enoyl)-3-(pyridin-4-yl)-4,5,6,7-tetrahydropyrazolo[1,5-a]pyrazin-2-yl]benzonitrile] | 50.5 | 50.3 | 933
8 | C=CC(=O)N1Cc2c(-c3ccncc3)c(-c3ccc(Cl)cc3)nn2C[C@@H]1C [Example 122, 1-[(6S)-2-(4-chlorophenyl)-6-methyl-3-(pyridin-4-yl)-6,7-dihydropyrazolo[1,5-a]pyrazin-5(4H)-yl]prop-2-en-1-one] | 0.369 | 0.803 | 13.8
9 | C=CC(=O)N1Cc2c(-c3ccncc3)c(-c3ccc(C(F)(F)F)cc3F)nn2C[C@@H]1C [Example 124, 1-[(6S)-2-[2-fluoro-4-(trifluoromethyl)phenyl]-6-methyl-3-(pyridin-4-yl)-6,7-dihydropyrazolo[1,5-a]pyrazin-5(4H)-yl]prop-2-en-1-one] | 0.859 | 2.08 | 30.4
10 | C=CC(=O)N1Cc2c(-c3ccncc3)c(-c3cccc(C#N)c3)nn2C[C@H]1C [Example 126, 3-[(6R)-6-methyl-5-(prop-2-enoyl)-3-(pyridin-4-yl)-4,5,6,7-tetrahydropyrazolo[1,5-a]pyrazin-2-yl]benzonitrile] | 12.4 | 4.52 | 86.5
11 | C=CC(=O)N1CCn2nc(-c3cc(Cl)ccc3F)c(-c3ccncc3)c2C1 [Example 132, 1-[2-(5-chloro-2-fluorophenyl)-3-(pyridin-4-yl)-6,7-dihydropyrazolo[1,5-a]pyrazin-5(4H)-yl]prop-2-en-1-one] | 0.957 | 1.31 | 44.2
12 | C=CC(=O)N1CCn2nc(-c3ccc(C(F)(F)F)c(F)c3)c(-c3ccncc3)c2C1 [Example 134, 1-{2-[3-fluoro-4-(trifluoromethyl)phenyl]-3-(pyridin-4-yl)-6,7-dihydropyrazolo[1,5-a]pyrazin-5(4H)-yl}prop-2-en-1-one] | 2.1 | 9.18 | 65.1
13 | C=CC(=O)N1CCn2nc(-c3ccc(C(F)(F)F)cc3F)c(-c3ccncc3)c2C1 [Example 135, 1-{2-[2-fluoro-4-(trifluoromethyl)phenyl]-3-(pyridin-4-yl)-6,7-dihydropyrazolo[1,5-a]pyrazin-5(4H)-yl}prop-2-en-1-one] | 0.471 | 1.8 | 27.7

Continued by falling IC50 [1], values first:

Row | IC50 [1] [nM] | IC50 [2] [nM] | SMILES | IC50 (BA/F3 (insSVD) cells) [nM]
14 | 25.4 | 5.65 | C=CC(=O)N1Cc2c(-c3ccncc3)c(-c3cccc(C#N)c3)nn2C[C@@H]1C [Example 127, 3-[(6S)-6-methyl-5-(prop-2-enoyl)-3-(pyridin-4-yl)-4,5,6,7-tetrahydropyrazolo[1,5-a]pyrazin-2-yl]benzonitrile] | 39
15 | 23.2 | 7.03 | C=CC(=O)N1CCn2nc(-c3ccc(F)c(C#N)c3)c(-c3ccncc3)c2C1 [Example 119, 2-fluoro-5-[5-(prop-2-enoyl)-3-(pyridin-4-yl)-4,5,6,7-tetrahydropyrazolo[1,5-a]pyrazin-2-yl]benzonitrile] | 153
16 | 6.69 | 45.5 | C=CC(=O)N1CCn2nc(-c3ccc(OCC)cc3)c(-c3ccncc3)c2C1 [Example 130, 1-[2-(4-ethoxyphenyl)-3-(pyridin-4-yl)-6,7-dihydropyrazolo[1,5-a]pyrazin-5(4H)-yl]prop-2-en-1-one] | 980
17 | 3.62 | 13.8 | C=CC(=O)N1CCn2nc(-c3ccc(OC(F)F)cc3)c(-c3ccncc3)c2C1 [Example 128, 1-{2-[4-(difluoromethoxy)phenyl]-3-(pyridin-4-yl)-6,7-dihydropyrazolo[1,5-a]pyrazin-5(4H)-yl}prop-2-en-1-one] | 139
18 | 3.01 | 3.83 | C=CC(=O)N1CCn2nc(-c3cccc(Cl)c3)c(-c3ccncc3)c2C1 [Example 133, 1-[2-(3-chlorophenyl)-3-(pyridin-4-yl)-6,7-dihydropyrazolo[1,5-a]pyrazin-5(4H)-yl]prop-2-en-1-one] | 172
19 | 2.97 | 16 | C=CC(=O)N1CCn2nc(-c3ccc(OC(F)(F)F)cc3)c(-c3ccncc3)c2C1 [Example 129, 1-[3-(pyridin-4-yl)-2-[4-(trifluoromethoxy)phenyl]-6,7-dihydropyrazolo[1,5-a]pyrazin-5(4H)-yl]prop-2-en-1-one] | 106
20 | 1.79 | 8.01 | C=CC(=O)N1CCn2nc(-c3ccc(C(F)F)cc3)c(-c3ccncc3)c2C1 [Example 131, 1-{2-[4-(difluoromethyl)phenyl]-3-(pyridin-4-yl)-6,7-dihydropyrazolo[1,5-a]pyrazin-5(4H)-yl}prop-2-en-1-one] | 61.3
21 | 1.76 | 3.91 | C=CC(=O)N1CCn2nc(-c3ccc(C)cc3O)c(-c3ccncc3)c2C1 [Example 113, 1-[2-(2-hydroxy-4-methylphenyl)-3-(pyridin-4-yl)-6,7-dihydropyrazolo[1,5-a]pyrazin-5(4H)-yl]prop-2-en-1-one] | 55.5
22 | 1.19 | 1.95 | C=CC(=O)N1Cc2c(-c3ccncc3)c(-c3ccc(Cl)cc3)nn2C[C@H]1C [Example 123, 1-[(6R)-2-(4-chlorophenyl)-6-methyl-3-(pyridin-4-yl)-6,7-dihydropyrazolo[1,5-a]pyrazin-5(4H)-yl]prop-2-en-1-one] | 23.7
